In experiment [1] the target is T1, Mouse SSAO/VAP-1 (Mus musculus, UniProt O70423).
T1 construct: Adipocytes were used as an SSAO source either as adherent cells or as a homogenate; endogenous in cells; host or cells: 3T3-L1 murine fibroblasts (ATCC) differentiated into adipocytes
T1 sequence (O70423 1-765): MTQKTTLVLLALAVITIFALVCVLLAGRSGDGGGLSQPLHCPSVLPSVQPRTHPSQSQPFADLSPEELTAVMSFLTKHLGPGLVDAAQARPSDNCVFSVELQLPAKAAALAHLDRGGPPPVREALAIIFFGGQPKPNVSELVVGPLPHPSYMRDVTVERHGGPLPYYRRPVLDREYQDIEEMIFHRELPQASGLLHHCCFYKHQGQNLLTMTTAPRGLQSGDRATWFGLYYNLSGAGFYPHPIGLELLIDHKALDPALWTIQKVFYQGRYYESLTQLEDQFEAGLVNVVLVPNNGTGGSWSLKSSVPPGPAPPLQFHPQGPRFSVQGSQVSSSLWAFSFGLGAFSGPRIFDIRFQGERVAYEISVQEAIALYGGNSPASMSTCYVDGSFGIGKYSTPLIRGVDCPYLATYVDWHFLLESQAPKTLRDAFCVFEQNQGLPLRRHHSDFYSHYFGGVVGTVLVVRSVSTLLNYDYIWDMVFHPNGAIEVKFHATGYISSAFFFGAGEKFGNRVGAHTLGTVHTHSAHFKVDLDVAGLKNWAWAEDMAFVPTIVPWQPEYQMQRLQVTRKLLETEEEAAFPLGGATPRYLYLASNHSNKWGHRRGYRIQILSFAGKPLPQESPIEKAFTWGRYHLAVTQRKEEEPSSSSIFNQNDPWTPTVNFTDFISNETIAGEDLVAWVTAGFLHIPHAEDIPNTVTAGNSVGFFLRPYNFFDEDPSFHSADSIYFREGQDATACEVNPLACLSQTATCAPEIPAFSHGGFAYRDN
As to the kind of experiment: Inhibition of amine oxidase activity of mouse SSAO/VAP-1 (3T3-L1 adipocytes, Amplex Red). As to conditions: 3T3-L1 adipocyte SSAO, 40 μM benzylamine. In kind it is biochemical. The source says:
3T3-L1 Murine fibroblasts were purchased from the American Type Culture Collection (ATCC, Rockville, Md.). Dulbecco's Modified Eagle Medium (DMEM) and fetal calf serum (FCS), antibiotics and Amplex® Red were obtained from Invitrogen (Carlsbad, Calif.). Tissue culture plastics and black clear-bottom 96 well plates were from BD Falcon (Bedford, Mass.). Bicinchoninic acid (BCA) reagent was from Pierce (Rockford, Ill.). All other materials were obtained from Sigma (St. Louis, Mo.).
3T3-L1 Fibroblasts were cultured in DMEM supplemented with 10% heat-inactivated FCS, 2 mM L-glutamine, 100 U/L penicillin and 100 μg/L streptomycin at 37° C. in 5% CO2. For differentiation into adipocytes, fibroblasts were cultured in DMEM with FCS for 1 or 2 days postconfluence, after which the cells were cultured for 3 days in DMEM containing 10% FCS, 350 nM insulin, 0.5 mM 3-isobutyl-1-methylxanthine, 250 nM dexamethasone, and 400 nM biotin and for 3 days in DMEM containing 10% FCS and 350 nM insulin. After differentiation, adipocytes were maintained in DMEM supplemented with 10% FCS. Adipocytes were used for experiments 8 to 11 days after the onset of differentiation, and the medium was renewed 2 or 3 days prior to each experiment. For culturing in black clear-bottom 96-well plates, cells were seeded at a 1:1 cell surface ratio, and differentiation was initiated 4 days postseeding. Cells were used between days 6-12 post-differentiation and between passages 7 and 20. Adipocytes were used as an SSAO source either as adherent cells or as a homogenate.
To prepare homogenate, 10 cm dishes of adipocytes were washed with HES buffer (20 mM HEPES, 1 mM EDTA, 250 mM sucrose, pH 7.4) and scraped in HES buffer containing 10 μg/mL leupeptin, 10 μM pepstatin and 1 mM PMSF. Cells were lysed by passage through a 23 G needle followed by passage through a 27 G needle. The lysate was spun at 500 g for 5 min and fat was removed. Protein concentration of the supernatant was measured using a BCA assay according to the manufacturer's instructions. The homogenate was stored at −80° C. until needed.
To measure the SSAO activity, adipocyte homogenate (0.5 mg/mL) or adipocytes (adhering cells) containing 0.5 mM pargyline, or purified human SSAO was incubated in 0.1 M sodium phosphate buffer pH 7.4 with varying concentrations of test compounds for 30 min at 37° C. The homogenate was then incubated at 37° C. with 60 μM Amplex® Red, 0.75 U/mL HRP and 40 μM benzylamine (mouse SSAO) or 300 μM benzylamine (human SSAO) and the formation of resorufin was measured (excitation range 530-560 nm and emission at 590 nm) every 10 min in either a Tecan Infinite 200 or a BMG plate reader. The IC50 values were estimated using Graphpad Prism software. The IC50 is an estimation of the concentration of the test compound to inhibit the amine oxidase activity of SSAO/VAP-1 by 50%. The IC50 values of certain invention compounds are included in Table 1.

Experiment [2] addresses T2, Human MAO-B (Homo sapiens, UniProt P27338).
T2 sequence (P27338 1-520): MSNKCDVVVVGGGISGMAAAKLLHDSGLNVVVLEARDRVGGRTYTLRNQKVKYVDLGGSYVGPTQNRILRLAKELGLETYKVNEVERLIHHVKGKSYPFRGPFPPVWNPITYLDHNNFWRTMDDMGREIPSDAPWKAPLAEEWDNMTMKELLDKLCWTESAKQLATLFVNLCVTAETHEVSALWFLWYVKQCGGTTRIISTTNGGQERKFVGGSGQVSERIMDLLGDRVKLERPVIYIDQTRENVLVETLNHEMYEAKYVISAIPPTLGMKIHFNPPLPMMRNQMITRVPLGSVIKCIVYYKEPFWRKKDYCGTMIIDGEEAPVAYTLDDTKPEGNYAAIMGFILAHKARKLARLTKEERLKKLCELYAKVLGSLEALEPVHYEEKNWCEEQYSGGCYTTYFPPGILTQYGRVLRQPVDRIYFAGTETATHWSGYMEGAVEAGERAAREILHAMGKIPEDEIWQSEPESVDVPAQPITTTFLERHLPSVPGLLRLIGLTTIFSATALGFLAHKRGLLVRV
As to the kind of experiment: Inhibition of recombinant MAO-B (Amplex Red). In kind it is biochemical. As to conditions: 50 μM benzylamine. The method, then:
Recombinant MAO-B was incubated in 0.1 M sodium phosphate buffer pH 7.4 with varying concentration of test compounds for 30 min at 37° C. The homogenate/protein was then incubated at 37° C. with […] Amplex® Red, 0.75 U/ml HRP and 40 μM benzylamine (mouse SSAO), 300 μM benzylamine (human SSAO), 100 μM tyramine (MAO-A) or 50 μM benzylamine (MAO-B) and the formation of resorufin was measured (excitation range 530-560 nm and emission at 590 nm) every 5 min in either a Tecan Infinite 200 or a BMG Fluorostar Optima platereader. IC50 were estimated using Graphpad Prism software.

Experiment [3] concerns experimental autoimmune encephalomyelitis. The settings on record: reported in US 2006/0025438 A1; cited from earlier work.

Molecules are shown by their SMILES. Structures can show the parent of a compound that is named as a salt. A value given as a limit tells only on which side of the number the result lay.

Broadly, the IC50 is the concentration at which inhibition is half-maximal. For the compound `Cc1nc2cc(OC/C(F)=C\CN)ccc2s1.Cl` [(E)-3-Fluoro-4-(2-methylbenzo[d]thiazol-5-yloxy)but-2-en-1-amine hydrochloride], the values for the IC50 in experiment [1] (30 min at 37° C. preincubation) and in experiment [2] (30 min at 37° C. preincubation) were less than 1000 nM and less than 100000 nM, respectively.

In the case of `CS(=O)(=O)c1ccc(OC/C(F)=C\CN)cc1.Cl` [(E)-3-Fluoro-4-(4-(methylsulfonyl)phenoxy)but-2-en-1-amine hydrochloride], the half-maximal inhibitory concentration (IC50) was less than 1000 nM in experiment [1] (30 min at 37° C. preincubation) and less than 100000 nM in experiment [2] (30 min at 37° C. preincubation).

With `NC/C=C(/F)COc1ccc(C(=O)NC2CCCCC2)cc1` [(E)-4-(4-amino-2-fluorobut-2-enyloxy)-N-cyclohexylbenzamide hydrochloride], the IC50 in experiment [1] (30 min at 37° C. preincubation) and in experiment [2] (30 min at 37° C. preincubation) was less than 1000 nM throughout.

As for `C[C@H](NS(=O)(=O)c1ccc(OC/C(F)=C\CN)cc1)c1ccccc1.Cl` [(S,E)-4-(4-Amino-2-fluorobut-2-enyloxy)-N-(1-phenylethyl)benzenesulfonamide], the IC50 in experiment [1] (30 min at 37° C. preincubation) and in experiment [2] (30 min at 37° C. preincubation) was less than 1000 nM each time.

Regarding `NC/C(=C/F)CCc1ccc(F)cc1` [Mofegiline, reference compound], the values for the IC50 in experiment [1] and in experiment [2] were 1 nM and 4 nM, respectively. Moreover, in experiment [3], the “Inhibition of experimental autoimmune encephalomyelitis” value is “inhibit experimental autoimmune encephalomyelitis”.

The values are drawn from patent publication US8426587B2, “Haloallylamine inhibitors of SSAO/VAP-1 and uses therefor” (Pharmaxis Ltd., priority 2007, dated 2013).
